From publication PMC9236248, “Ucl fimbriae regulation and glycan receptor specificity contribute to gut colonisation by extra-intestinal pathogenic Escherichia coli” (PLoS Pathogens, 2022)
Values joined by “and” are separate entries in the source; they are usually repeats but may differ in a detail not shown here. Equal entries are not always repeated.

Assays:
UclD^LD [1] = biological target: T1, UclD^LD (Escherichia coli, UniProt Q8GA71); assay: Glycan array analysis (358 glycan structures), UclD; details: yes/no binding
T1 sequence (Q8GA71 21-221): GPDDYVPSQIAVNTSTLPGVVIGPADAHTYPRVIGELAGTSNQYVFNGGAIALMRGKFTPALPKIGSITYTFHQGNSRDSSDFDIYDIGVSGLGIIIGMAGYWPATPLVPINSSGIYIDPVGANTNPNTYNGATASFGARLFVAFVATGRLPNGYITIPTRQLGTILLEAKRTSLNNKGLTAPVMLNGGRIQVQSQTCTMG

UcaD^LD = UcaD^LD (Proteus mirabilis, UniProt B4EV65); assay: Soaking of pre-formed UcaD^LD crystals with monosaccharides (X-ray crystallography); assay type: binding, P. mirabilis PM54; details: 0.1-0.2 M monosaccharide, 48 hours soak
Experimental: Crystals were produced by the hanging drop method. Structural analyses were carried out using DALI [22], and PyMOL (http://www.pymol.org). Figures were generated using PyMOL. The UclD^LD structure was refined to final Rwork/Rfree values of 24.8%/30.6%; the UcaD^LD structure was refined to final Rwork/Rfree values of 16.9%/19.2%, respectively (Table A in S1 Text). For UcaD^LD:monosaccharide complexes, coordinates and structure factors have been deposited in the PDB with IDs 7MZQ (Fuc complex), 7MZR (Glc complex), and 7MZS (Gal complex).
157 flash-cooling in liquid nitrogen. X-ray diffraction data were collected from a single crystal at the
158 Australian Synchrotron MX2 beamline, using a wavelength of 0.9537 Å. Data collection was
159 performed using Blu-Ice software, indexed and integrated using MOSFLM and scaled with
160 AIMLESS within the CCP4 suite. The structure was solved by molecular replacement using
161 PHASER [23] and UclDLD as the template. The model was refined using Phenix and structure
The structure was refined to final Rwork/Rfree values
163 of 16.9 %/19.2 %, respectively (Table A in S1 Text). The final UcaDLD model contains residues 21-
165 disordered or flexible conformation in the crystals. Coordinates and structure factors have been
166 deposited in the PDB with ID 7MZO.
167 UcaDLD:monosaccharide complexes: Pre-formed UcaDLD and UclDLD crystals were soaked with
168 0.1-0.2 M of the monosaccharides Fuc, Glc, Gal, GlcNAc, GalNAc or Neu5Ac for 48 hours in the
169 crystallisation solution (0.1 M sodium citrate buffer pH 4.5-5.5, 2-3 M NaCl). The crystals were
170 cryoprotected in Paratone-N and flash-cooled at 100 K. X-ray diffraction data were collected from
171 single crystals on the MX2 beamline at the Australian Synchrotron, using a wavelength of 0.9537 Å.
172 The data-sets was processed using either MOSFLM (Gal complex), or XDS (Fuc and Glc complexes)
173 [27] and scaled using AIMLESS in the CCP4 suite. The structures were solved by molecular
174 replacement using PHASER [23] and ligand-free UcaDLD as the template. The models were refined
175 using Phenix, and structure validations were performed using MolProbity. Coordinates and
176 structure factors have been deposited in the PDB with IDs 7MZQ (Fuc complex), 7MZR (Glc
177 complex), and 7MZS (Gal complex).

UclD = details: galactose at 1 mM alone
OxyR-6xHis = biological target: T2, OxyR-6xHis (UniProt P0ACQ4); assay: EMSA
T2 sequence: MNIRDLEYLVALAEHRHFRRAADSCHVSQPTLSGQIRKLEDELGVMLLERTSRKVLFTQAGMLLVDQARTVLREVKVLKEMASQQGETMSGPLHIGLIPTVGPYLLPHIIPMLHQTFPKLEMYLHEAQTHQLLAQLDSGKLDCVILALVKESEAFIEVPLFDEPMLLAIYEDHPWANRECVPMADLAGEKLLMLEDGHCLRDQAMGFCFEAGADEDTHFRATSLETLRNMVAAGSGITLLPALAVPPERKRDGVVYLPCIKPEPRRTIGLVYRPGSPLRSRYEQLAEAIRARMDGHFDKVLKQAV

UclD^LD [2] = biological target: T1, UclD^LD; assay: SPR analysis of glycans on immobilized UclD lectin domain; set-up: species or system E. coli strain F11; details: single cycle kinetics, read-out: KD, binding affinity to UclD^LD determined by SPR
Experimental: 126 described with minor modifications. Briefly, UclD and UcaD were immobilized onto flow cells
127 of a CM5 sensor chip using amine coupling at 20 µg/mL in 10 mM sodium acetate pH 4.0 and at a
128 flow rate of 5 µL/min for 10 minutes. Glycans were chosen based on positive glycan array results for
129 each of the proteins with each glycan run across a dilution range starting at a maximum concentration
130 of 100 µM and minimum concentrations tested being 1.6 nM using single cycle kinetics. Results were
131 analysed using the Biacore T200 evaluation software.
132 Crystallization and crystal structure determination.
133 UclDLD: UclDLD crystals were produced using the hanging drop method, with drops containing 1 µL
134 of protein (10 mg/mL) and 1 µL of well solution (20-25% w/v PEG 3350, 0.1 M Bis-Tris propane
135 pH 6.5, 0.2 M sodium iodide). The crystals appeared within 1-5 days. The crystals were cryoprotected
136 in glycerol (80% well solution and 20% (v/v) glycerol) before flash-cooling in liquid nitrogen. X-ray
137 diffraction data were collected from a single crystal at the Australian Synchrotron MX1 beamline,
138 using a wavelength of 0.9537 Å. Data collection was performed using Blu -Ice software, indexed
139 and integrated using MOSFLM and scaled with AIMLESS within the CCP4 suite. Molecular […]
142 we determined the UclDLD structure by SAD phasing using the CRANK2 [19] pipeline of the CCP4 […]

Sequence of UcaD^LD (B4EV65 entry or part of it): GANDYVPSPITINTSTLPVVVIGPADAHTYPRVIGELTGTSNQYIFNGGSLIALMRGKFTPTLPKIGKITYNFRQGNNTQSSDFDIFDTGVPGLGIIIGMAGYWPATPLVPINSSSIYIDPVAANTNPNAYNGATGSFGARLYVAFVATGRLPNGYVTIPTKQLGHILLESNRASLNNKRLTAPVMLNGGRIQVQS

Row | Compound | Monosaccharide electron density / binding in soaked UcaD^LD crystals (UcaD^LD) | also measured
1 | asialo-GM1 |  | Binding to UclD^LD on glycan array (UclD^LD [1]): did not identify interactions
2 | CO[C@@H]1O[C@H](CO)[C@H](O)[C@H](O)[C@H]1O [β-methyl-galactose] | did not observe binding | 
3 | O=C[C@H](O)[C@@H](O)[C@@H](O)[C@H](O)CO [galactose] | Clear monosaccharide electron density was observed | Response 15 seconds after injection-B (UclD): 6.3 RU and ~ 6.3 RU
4 | C[C@H](O)[C@@H](O)[C@@H](O)[C@H](O)C=O [Fuc, fucose] | Clear monosaccharide electron density was observed | 
5 | OC[C@H]1OC(O)[C@H](O)[C@@H](O)[C@@H]1O (some centres unmarked) [Glc, glucose] | Clear monosaccharide electron density was observed | 
6 | CC(=O)N[C@H]1[C@H]([C@H](O)[C@H](O)CO)OC(O)(C(=O)O)C[C@@H]1O (some centres unmarked) [Neu5Ac, N-acetylneuraminic acid] | not | 
7 | AATAGGTCGCTCATTTCAGGGTAAAGCATATCTTTTGTCATTACCAACACAATAAATATGGTTTTTGATCGTTTTTCCCGATCGTTTTAGCAATCATGATATGTGCAATCTATCATACGCTGGTTATCGATCGGTAAAAACATTTTGAAAATGATTGTTTTGTTGGGGATGATTGCTGAACAAATGATCAATACTGGAATTAAACAGGAATTCATTTTATGAAAATAAAAGTTATAGCATTGGCTACATTTGTTTCTGCTG (double strand) [Cy3-Pucl-78T] |  | binding (OxyR-6xHis): binds
8 | lactosyl ceramide |  | Binding to UclD^LD on glycan array (UclD^LD [1]): did not identify interactions
9 | CC(=O)N[C@@H]1[C@@H](O)[C@H](O)[C@@H](CO)O[C@H]1O [GlcNAc, N-acetylglucosamine] | not | 
10 | CC(=O)N[C@H]1[C@H]([C@H](O)[C@H](O)CO)O[C@@](O[C@H]2[C@@H](O)[C@@H](CO)O[C@@H](O[C@@H]([C@H](O[C@@H]3O[C@@H](C)[C@@H](O)[C@@H](O)[C@@H]3O)[C@H](C=O)NC(C)=O)[C@H](O)CO)[C@@H]2O)(C(=O)O)C[C@@H]1O [SialylLewis X, Neu5Acα2-3Galβ1-4(Fucα1–3)GlcNAc] |  | Kd (UclD^LD [2]): 2520 nM
